ChEMBL document CHEMBL1201862, “PubChem BioAssay data set” (2004)
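Compound exposure: 48 hours, 5 concentrations, 96-well plates. GI50 marks 50% less growth.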 Calls of active or inactive are those of the source. No stated cut-off is given here; in the data, active = GI50 up to about 1.1 µM and inactive = higher.

Experiments:
Experiment in all cases: inhibition of tumour cell growth, NCI panel, 48 h
[1] = test system: DLD-1
[2] = test system: EKVX
[3] = test system: HCT-116
[4] = test system: HT-29
[5] = test system: MOLT-4
[6] = test system: NCI-H23
[7] = test system: OVCAR-8
[8] = test system: RPMI-8226
[9] = test system: SF-295
[10] = test system: SK-MEL-28
[11] = test system: SK-MEL-2
[12] = test system: SK-MEL-5
[13] = test system: SNB-19
[14] = test system: SW-620
[15] = test system: U-251
[16] = test system: UACC-257
[17] = test system: MDA-MB-231
[18] = test system: MDA-MB-435
[19] = test system: PC-3
[20] = test system: T47D

Measured: GI50

CC1CCP(=O)(c2ccccc2)c2ccccc21 (stereo unspecified)
inactive: [1] 46.8 µM | [2] > 100 µM | [3] 23 µM | [4] > 100 µM | [5] 30.8 µM | [6] > 100 µM | [7] 41.6 µM | [8] 64.3 µM | [9] > 100 µM | [10] > 100 µM | [11] > 100 µM | [12] 49.5 µM | [13] > 100 µM | [14] > 10 µM | [15] 24.1 µM | [16] 65.9 µM

COC(=O)C1=C(C(=O)OC)SC(=CC#CC=C2SC(C(=O)OC)=C(C(=O)OC)S2)S1
inactive: [1] 14.1 µM | [2] 52.2 µM | [3] 11.7 µM | [4] 24.9 µM | [5] > 100 µM | [6] 5.81 µM | [7] 5.04 µM | [8] > 100 µM | [9] 2.82 µM | [10] 18.4 µM | [11] 12.9 µM | [12] 27 µM | [13] 6.41 µM | [14] 26.9 µM | [15] 16.1 µM | [16] > 54.3 µM

Cc1cc2c(cc1Br)C1(C)CCC(C)C1(C)O2 (stereo unspecified)
inactive: [1] 48.8 µM | [2] 55.6 µM | [3] 14 µM | [4] 30.6 µM | [5] 17.9 µM | [6] 25.5 µM | [7] 29.6 µM | [8] 14 µM | [9] 17.3 µM | [10] 38.4 µM | [11] 18.6 µM | [12] 29.1 µM | [13] 36 µM | [14] 40.1 µM | [15] 21.8 µM | [16] 30.5 µM

N#CC1(C#N)C2(c3ccccc3)OC(c3ccccc3)(c3cc4ccccc4cc32)C1(C#N)C#N
inactive: [1] 8.73 µM | [2] 16.6 µM | [3] 7.03 µM | [4] 14.8 µM | [17] 15.7 µM | [18] 17.1 µM | [5] 1.71 µM | [6] 11.9 µM | [7] 8.3 µM | [19] 17.1 µM | [8] 1.28 µM | [9] 15.8 µM | [10] 12.4 µM | [11] 19.4 µM | [12] 14.3 µM | [13] 15.5 µM | [14] 2.62 µM | [20] 13.6 µM | [15] 16.3 µM | [16] 27.5 µM

CN1C(=O)n2c(nc3ccccc32)C(N=[N+]=[N-])(N=[N+]=[N-])C1=O (stereo unspecified)
inactive: [1] > 100 µM | [2] > 100 µM | [3] > 100 µM | [4] > 100 µM | [5] > 100 µM | [6] > 100 µM | [7] > 100 µM | [8] > 100 µM | [9] > 100 µM | [10] > 100 µM | [11] > 100 µM | [12] > 100 µM | [13] > 100 µM | [14] > 100 µM | [15] > 100 µM | [16] > 100 µM

CC1(C)c2ccccc2N2O[C@@H]3C(=O)N(c4ccccc4)C(=O)[C@@H]3C21c1ccccc1 (stereo partly specified)
inactive: [1] > 100 µM | [2] > 100 µM | [4] > 100 µM | [5] 47.8 µM | [6] > 100 µM | [7] > 100 µM | [8] 57.7 µM | [9] > 100 µM | [10] > 100 µM | [11] > 100 µM | [12] > 100 µM | [13] > 100 µM | [14] > 100 µM | [16] > 100 µM

COc1cc2c(cc1OC)C(Cl)C(c1ccc(Br)cc1)=C2Cl (stereo unspecified)
inactive: [1] 12.7 µM | [2] 10.6 µM | [3] 9.16 µM | [4] 13.3 µM | [17] 9.64 µM | [18] 4.37 µM | [5] 4.24 µM | [6] 9.95 µM | [7] 10.1 µM | [19] 7.82 µM | [8] 2.52 µM | [9] 14.9 µM | [10] 14.8 µM | [11] 9.08 µM | [12] 14.4 µM | [13] 16.7 µM | [14] 9.51 µM | [20] 3.23 µM | [15] 10.2 µM | [16] 15.1 µM

COC(=O)c1cc(O)ccc1NC(=O)c1ccc(O)cc1
inactive: [1] > 100 µM | [2] > 100 µM | [3] > 100 µM | [4] > 100 µM | [5] > 100 µM | [6] > 100 µM | [7] > 100 µM | [8] > 100 µM | [9] > 100 µM | [10] > 100 µM | [11] > 100 µM | [12] > 100 µM | [13] > 100 µM | [14] > 100 µM | [15] > 100 µM | [16] > 100 µM

COC(=O)N1CCc2c(nc(N(C)CCO)[nH]c2=O)C1
inactive: [1] > 100 µM | [2] > 100 µM | [3] > 100 µM | [4] > 100 µM | [5] > 100 µM | [6] > 100 µM | [7] > 100 µM | [8] > 100 µM | [9] > 100 µM | [10] > 100 µM | [11] > 100 µM | [12] > 100 µM | [13] > 100 µM | [14] > 100 µM | [15] > 100 µM | [16] > 100 µM

CC(C)c1cccc(C(C)C)c1NC(=S)NN=C1C=C(C(C)(C)C)C(=O)C(C(C)(C)C)=C1
inactive: [1] 36.4 µM | [2] 33.5 µM | [3] 3.59 µM | [4] 33 µM | [5] 28.7 µM | [6] 16.9 µM | [7] 17.8 µM | [8] 27.2 µM | [9] 31 µM | [10] 34.4 µM | [11] 20.2 µM | [12] 21 µM | [13] 22.3 µM | [14] 28.5 µM | [15] 16.2 µM | [16] 18.9 µM

COc1cc(Cn2c(=S)ss/c2=N\C(=S)N(C)C)cc(OC)c1OC
inactive: [1] 6.31 µM | [2] > 81.5 µM | [3] 4.53 µM | [4] 4.04 µM | [17] 15.1 µM | [18] 1.26 µM | [5] 8.91 µM | [6] 14.7 µM | [7] 52.6 µM | [19] 3.35 µM | [8] 6.7 µM | [9] 3.44 µM | [10] 10 µM | [11] 4.46 µM | [12] 2.26 µM | [13] 46.1 µM | [14] 2.81 µM | [20] > 86.7 µM | [15] 4.61 µM | [16] 10.6 µM

COc1cc2c(cc1OC)-c1cc3cc(OC)c(OC)cc3n1CC2
inactive: [1] 58.2 µM | [2] > 100 µM | [3] 32.4 µM | [4] 16.6 µM | [5] > 100 µM | [6] 81.1 µM | [7] 24.1 µM | [8] 71.8 µM | [9] 13.2 µM | [10] 34 µM | [11] > 100 µM | [13] 25.8 µM | [14] 33.9 µM | [15] 37.7 µM | [16] 56 µM
